In ChEMBL document CHEMBL3046848, “Synthesis and biological evaluation of novel series of thieno[2,3-d]pyrimidine derivatives as anticancer and antimicrobial agents” (2013):

Legend:
Type in all cases: functional
Staphylococcus aureus = assay: Antimicrobial activity against Staphylococcus aureus ATCC6538P assessed as diameter of growth inhibition zone at 1 mg/ml after 24 hr by agar cup diffusion method; conditions: read-out: IZ
SN12C = assay: Growth inhibition of Homo sapiens (human) SN12C cells at 10 uM after 48 hr by SRB assay; conditions: read-out: GI
HL-60(TB) = assay: Growth inhibition of Homo sapiens (human) HL-60(TB) cells at 10 uM after 48 hr by SRB assay; conditions: HL-60, 48 h, read-out: GI
COLO 205 = assay: Anticancer activity against Homo sapiens (human) COLO205 cells after 48 hr by SRB assay; conditions: COLO 205, 48 h
HCT-15 = assay: Anticancer activity against Homo sapiens (human) HCT15 cells after 48 hr by SRB assay; conditions: HCT-15, 48 h
NCI-H23 = assay: Growth inhibition of Homo sapiens (human) NCI-H23 cells at 10 uM after 48 hr by SRB assay; conditions: NCI-H23, 48 h, read-out: GI
HOP-92 = assay: Growth inhibition of Homo sapiens (human) HOP92 cells at 10 uM after 48 hr by SRB assay; conditions: HOP-92, 48 h, read-out: GI
SK-MEL-5 = assay: Growth inhibition of Homo sapiens (human) SK-MEL-5 cells at 10 uM after 48 hr by SRB assay; conditions: SK-MEL-5, 48 h, read-out: GI
SK-OV-3 = assay: Anticancer activity against Homo sapiens (human) SKOV3 cells after 48 hr by SRB assay; conditions: SK-OV-3, 48 h
EKVX = assay: Growth inhibition of Homo sapiens (human) EKVX cells at 10 uM after 48 hr by SRB assay; conditions: read-out: GI
M14 = assay: Anticancer activity against Homo sapiens (human) M14 cells after 48 hr by SRB assay; conditions: M14, 48 h
SR = assay: Anticancer activity against Homo sapiens (human) SR cells after 48 hr by SRB assay
UACC-62 = assay: Anticancer activity against Homo sapiens (human) UACC62 cells after 48 hr by SRB assay; conditions: UACC-62, 48 h
MOLT-4 = assay: Growth inhibition of Homo sapiens (human) MOLT4 cells at 10 uM after 48 hr by SRB assay; conditions: MOLT-4, 48 h, read-out: GI
SK-MEL-2 = assay: Anticancer activity against Homo sapiens (human) SK-MEL-2 cells after 48 hr by SRB assay; conditions: SK-MEL-2, 48 h
TK-10 = assay: Anticancer activity against Homo sapiens (human) TK10 cells after 48 hr by SRB assay; conditions: TK-10, 48 h
SF-268 = assay: Anticancer activity against Homo sapiens (human) SF268 cells after 48 hr by SRB assay; conditions: SF-268, 48 h
786-0 = assay: Growth inhibition of Homo sapiens (human) 786-0 cells at 10 uM after 48 hr by SRB assay; conditions: 786-0, 48 h, read-out: GI
OVCAR-8 = assay: Anticancer activity against Homo sapiens (human) OVCAR8 cells after 48 hr by SRB assay; conditions: OVCAR-8, 48 h
[1] = read-out: LC50 (the source's name)

Cc1c(C(N)=O)sc2nc(C)n(/N=c3\scc(-c4ccccc4)n3Cc3ccccc3)c(=O)c12
zone of inhibition at 1000 µg/mL (Staphylococcus aureus): 10 mm | inhibition of growth at 10 µM (SN12C): 52.3% | inhibition of growth at 10 µM (HL-60(TB)): 136% | GI50 (COLO 205): 2.39 µM | TGI (COLO 205): 7.32 µM | CC50 (COLO 205; [1]): > 100 µM | GI50 (HCT-15): 2.64 µM | TGI (HCT-15): > 100 µM | CC50 (HCT-15; [1]): > 100 µM | inhibition of growth at 10 µM (NCI-H23): 79.5% | inhibition of growth at 10 µM (HOP-92): 119% | inhibition of growth at 10 µM (SK-MEL-5): 92.6% | GI50 (SK-OV-3): 4.5 µM | TGI (SK-OV-3): > 100 µM | CC50 (SK-OV-3; [1]): > 100 µM | inhibition of growth at 10 µM (EKVX): 107% | GI50 (M14): 3.88 µM | TGI (M14): 84.5 µM | CC50 (M14; [1]): > 100 µM | GI50 (SR): 5.74 µM | TGI (SR): > 100 µM | CC50 (SR; [1]): > 100 µM | GI50 (UACC-62): 4.26 µM | TGI (UACC-62): 83.2 µM | CC50 (UACC-62; [1]): > 100 µM | inhibition of growth at 10 µM (MOLT-4): 87.9% | GI50 (SK-MEL-2): 3.89 µM | TGI (SK-MEL-2): 86.6 µM | CC50 (SK-MEL-2; [1]): > 100 µM | GI50 (TK-10): 3.78 µM | TGI (TK-10): > 100 µM | CC50 (TK-10; [1]): > 100 µM | GI50 (SF-268): 4 µM | TGI (SF-268): > 100 µM | CC50 (SF-268; [1]): > 100 µM | inhibition of growth at 10 µM (786-0): 49.3% | GI50 (OVCAR-8): 3.49 µM | TGI (OVCAR-8): > 100 µM | CC50 (OVCAR-8; [1]): > 100 µM
